Reference: PubChem BioAssay (NCI)
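A five-concentration, 48-hour dose response in 96-well plates underlies each endpoint, interpolated linearly between surrounding concentrations. Definition used: TGI = concentration required for complete inhibition of growth.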

Experiments:
Assay in all cases: DTP human tumour cell line panel, 48 h
786-0 renal = system: 786-0 renal
A498 renal = system: A498 renal
A549 NSCLC = system: A549 NSCLC
ACHN renal = system: ACHN renal
BT-549 breast = system: BT-549 breast
CCRF-CEM leukemia = system: CCRF-CEM leukemia
COLO 205 colon = system: COLO 205 colon
DU-145 prostate = system: DU-145 prostate
EKVX NSCLC = system: EKVX NSCLC
HCC-2998 colon = system: HCC-2998 colon
HCT-116 colon = system: HCT-116 colon
HCT-15 colon = system: HCT-15 colon
HL-60(TB) leukemia = system: HL-60(TB) leukemia
HOP-62 NSCLC = system: HOP-62 NSCLC
HS 578T breast = system: HS 578T breast
HT29 colon = system: HT29 colon
IGROV1 ovarian = system: IGROV1 ovarian
K-562 leukemia = system: K-562 leukemia
KM12 colon = system: KM12 colon
LOX IMVI melanoma = system: LOX IMVI melanoma
M14 melanoma = system: M14 melanoma
MALME-3M melanoma = system: MALME-3M melanoma
MDA-MB-231 breast = system: MDA-MB-231 breast
MDA-N = system: MDA-N
MOLT-4 leukemia = system: MOLT-4 leukemia
NCI-H226 lung = system: NCI-H226 lung
NCI-H23 lung = system: NCI-H23 lung
NCI-H460 lung = system: NCI-H460 lung
NCI/ADR-RES ovarian = system: NCI/ADR-RES ovarian
OVCAR-3 ovarian = system: OVCAR-3 ovarian
OVCAR-4 ovarian = system: OVCAR-4 ovarian
OVCAR-5 ovarian = system: OVCAR-5 ovarian
OVCAR-8 ovarian = system: OVCAR-8 ovarian
PC-3 prostate = system: PC-3 prostate
RPMI-8226 leukemia = system: RPMI-8226 leukemia
RXF 393 renal = system: RXF 393 renal
SF-268 CNS = system: SF-268 CNS
SF-295 CNS = system: SF-295 CNS
SF-539 CNS = system: SF-539 CNS
SK-MEL-2 melanoma = system: SK-MEL-2 melanoma
SK-MEL-28 melanoma = system: SK-MEL-28 melanoma
SK-MEL-5 melanoma = system: SK-MEL-5 melanoma
SK-OV-3 ovarian = system: SK-OV-3 ovarian
SN12C renal = system: SN12C renal
SNB-19 CNS = system: SNB-19 CNS
SNB-75 CNS = system: SNB-75 CNS
SR leukemia = system: SR leukemia
SW-620 colon = system: SW-620 colon
T-47D breast = system: T-47D breast
TK-10 renal = system: TK-10 renal
U251 CNS = system: U251 CNS
UACC-257 melanoma = system: UACC-257 melanoma
UACC-62 melanoma = system: UACC-62 melanoma
UO-31 renal = system: UO-31 renal
CAKI-1 renal = system: CAKI-1 renal
HOP-92 NSCLC = system: HOP-92 NSCLC
MCF7 breast = system: MCF7 breast
MDA-MB-435 = system: MDA-MB-435
NCI-H522 lung = system: NCI-H522 lung

Compound `O=c1cc(NNc2ccc(F)cc2)[nH]c(=O)[nH]1` has a TGI (786-0 renal) of 25.5 µM, a TGI (A498 renal) greater than 100 µM and a TGI (A549 NSCLC) of 34.7 µM. It also gave a TGI (ACHN renal) of 31.7 µM, a TGI (BT-549 breast) of 26.7 µM and a TGI (CCRF-CEM leukemia) of 74.7 µM. It also gave a TGI (COLO 205 colon) of 30.9 µM, a TGI (DU-145 prostate) greater than 100 µM and a TGI (EKVX NSCLC) of 32.2 µM. It also gave a TGI (HCC-2998 colon) of 51.3 µM, a TGI (HCT-116 colon) of 34.1 µM and a TGI (HCT-15 colon) of 31.7 µM. For the same compound, the TGI (HL-60(TB) leukemia) was greater than 100 µM, the TGI (HOP-62 NSCLC) was 32.7 µM and the TGI (HS 578T breast) was 90.8 µM. The TGI (HT29 colon) was 33.9 µM, the TGI (IGROV1 ovarian) was 30.2 µM and the TGI (K-562 leukemia) was 81.2 µM. It also gave a TGI (KM12 colon) of 24 µM, a TGI (LOX IMVI melanoma) greater than 100 µM and a TGI (M14 melanoma) of 21 µM. The TGI (MALME-3M melanoma) was 43.8 µM, the TGI (MDA-MB-231 breast) was 33.4 µM and the TGI (MDA-N) was 30.8 µM. The TGI (MOLT-4 leukemia) was 59.3 µM, the TGI (NCI-H226 lung) was 57.4 µM and the TGI (NCI-H23 lung) was 82.7 µM. The TGI (NCI-H460 lung) was 38.7 µM, the TGI (NCI/ADR-RES ovarian) was 88.7 µM and the TGI (OVCAR-3 ovarian) was 32.7 µM. For the same compound, the TGI (OVCAR-4 ovarian) was 21.4 µM, the TGI (OVCAR-5 ovarian) was 33.3 µM and the TGI (OVCAR-8 ovarian) was 53.3 µM. It also gave a TGI (PC-3 prostate) of 32.5 µM, a TGI (RPMI-8226 leukemia) greater than 100 µM and a TGI (RXF 393 renal) of 34.3 µM. It also gave a TGI (SF-268 CNS) of 53.8 µM, a TGI (SF-295 CNS) greater than 100 µM and a TGI (SF-539 CNS) of 44.5 µM. The TGI (SK-MEL-2 melanoma) was 45.6 µM, the TGI (SK-MEL-28 melanoma) was 33.3 µM and the TGI (SK-MEL-5 melanoma) was 67.1 µM. The TGI (SK-OV-3 ovarian) was greater than 100 µM, the TGI (SN12C renal) was 37.7 µM and the TGI (SNB-19 CNS) was 37.1 µM. It also gave a TGI (SNB-75 CNS) of 31.1 µM, a TGI (SR leukemia) greater than 100 µM and a TGI (SW-620 colon) of 33.1 µM. The TGI (T-47D breast) was 71 µM, the TGI (TK-10 renal) was 36.8 µM and the TGI (U251 CNS) was 40.8 µM. It also gave a TGI (UACC-257 melanoma) greater than 100 µM, a TGI (UACC-62 melanoma) of 33.5 µM and a TGI (UO-31 renal) of 31.8 µM.
Work on `O=C1CC(Cl)c2c1csc2Br` (configuration not stated) yielded a TGI (786-0 renal) of 25.9 µM, a TGI (A498 renal) of 53.8 µM and a TGI (A549 NSCLC) of 41.4 µM. For the same compound, the TGI (ACHN renal) was 29 µM, the TGI (BT-549 breast) was 34 µM and the TGI (CAKI-1 renal) was 17.7 µM. The TGI (CCRF-CEM leukemia) was 7.78 µM, the TGI (COLO 205 colon) was 28.5 µM and the TGI (DU-145 prostate) was greater than 100 µM. The TGI (EKVX NSCLC) was 43.2 µM, the TGI (HCC-2998 colon) was 31.2 µM and the TGI (HCT-116 colon) was 33.1 µM. For the same compound, the TGI (HCT-15 colon) was 25.8 µM, the TGI (HL-60(TB) leukemia) was 52.4 µM and the TGI (HOP-62 NSCLC) was 28.7 µM. The TGI (HOP-92 NSCLC) was 41.8 µM, the TGI (HS 578T breast) was 47.5 µM and the TGI (HT29 colon) was 43.9 µM. It also gave a TGI (IGROV1 ovarian) of 30.8 µM, a TGI (K-562 leukemia) of 47 µM and a TGI (KM12 colon) of 28.5 µM. For the same compound, the TGI (LOX IMVI melanoma) was 30.5 µM, the TGI (M14 melanoma) was 27.3 µM and the TGI (MALME-3M melanoma) was 30.1 µM. It also gave a TGI (MCF7 breast) of 19.6 µM, a TGI (MDA-MB-435) of 29.1 µM and a TGI (MDA-N) of 42.2 µM. For the same compound, the TGI (MOLT-4 leukemia) was 22.2 µM, the TGI (NCI-H226 lung) was 76.9 µM and the TGI (NCI-H23 lung) was 28.9 µM. It also gave a TGI (NCI-H460 lung) of 42.5 µM, a TGI (NCI-H522 lung) of 11.3 µM and a TGI (NCI/ADR-RES ovarian) of 47 µM. The TGI (OVCAR-3 ovarian) was 39.5 µM, the TGI (OVCAR-4 ovarian) was 63.6 µM and the TGI (OVCAR-5 ovarian) was 33.5 µM. The TGI (OVCAR-8 ovarian) was 29.8 µM, the TGI (PC-3 prostate) was 25.4 µM and the TGI (RPMI-8226 leukemia) was 3.25 µM. For the same compound, the TGI (RXF 393 renal) was 34.7 µM, the TGI (SF-268 CNS) was 31.4 µM and the TGI (SF-295 CNS) was 50.2 µM. The TGI (SF-539 CNS) was 6.46 µM, the TGI (SK-MEL-2 melanoma) was 29.8 µM and the TGI (SK-MEL-28 melanoma) was 32.1 µM. It also gave a TGI (SK-MEL-5 melanoma) of 30.6 µM, a TGI (SK-OV-3 ovarian) of 32.6 µM and a TGI (SN12C renal) of 35.7 µM. The TGI (SNB-19 CNS) was 32.9 µM, the TGI (SNB-75 CNS) was 35.4 µM and the TGI (SR leukemia) was 22.3 µM. The TGI (SW-620 colon) was 12.6 µM, the TGI (T-47D breast) was 70.1 µM and the TGI (TK-10 renal) was 29.5 µM. The TGI (U251 CNS) was 30.4 µM, the TGI (UACC-257 melanoma) was 32.1 µM and the TGI (UACC-62 melanoma) was 29.5 µM. It also gave a TGI (UO-31 renal) of 23.8 µM.
